Results reported in US20250381184A1, “PHARMACEUTICAL COMBINATION COMPRISING AN ANTI-CD3 ANTIBODY AND A CXCR3 ANTAGONIST” (Idorsia Pharmaceuticals Ltd, priority 2022, published 2025).
One block for each molecule: values may come before it.

Experiments:
[1] = COMPOUND plasma concentration in LPS-induced lung inflammation model; assay type: in vivo, Male DBA/1 mice; conditions: food admix, increasing doses
Protocol: Groups of 11 to 22 mice are given food mixed with different concentrations of COMPOUND (food admix) starting 3 days prior the LPS challenge and continuing during the whole duration of the experiment. The study consists of seven treatment groups: • 1. Control food admix (no COMPOUND), n=22 • 2. Food admix containing 0.006 mg COMPOUND per g food, n=12 • 3. Food admix containing 0.02 mg COMPOUND per g food, n=12 • 4. Food admix containing 0.06/0.07 mg COMPOUND per g food, n=24 • 5. Food admix containing 0.2 mg COMPOUND per g food, n=12 • 6. Food admix containing 0.6 mg COMPOUND per g food, n=11 • 7. Food admix containing 2 mg COMPOUND per g food, n=11
The experiment is terminated at day 3, 72 hours post LPS challenge. BAL is collected and number of T cells expressing CXCR3 quantified by flow cytometry as described in Pouzol et al., Front Pharmacol 2021,12(2991), doi: 10.3389/fphar.2021.748740. Plasma samples are taken for COMPOUND concentration determination.

[2] = test system: CXCR3-expressing CD8+ T cell migration into the BAL; experiment: LPS-induced lung inflammation model, BAL CXCR3+CD8+ T cells by flow cytometry; assay type: in vivo, Male DBA/1 mice
NOD mice = experiment: Spontaneous T1D model (NOD mice), blood glucose values; assay type: in vivo; conditions: for % of reduction from Isotype/vehicle group: BGV at week 40 of age; for efficacy on the BGV: therapeutic setting
Source text: The efficacy of COMPOUND and of an anti-CD3 monoclonal antibody alone or in combination, or the combination of an anti-CD3 monoclonal antibody and anti-CXCL10 monoclonal antibody can be determined in inducible and spontaneous mouse models of T1D.
The efficacy of COMPOUND and the anti-CD3 monoclonal antibody alone or in combination can be determined in non-obese diabetic (NOD) mice, a spontaneous model for studying T1D (Chen et al. Front Endocrinol 2018, 9:51).
Blood glucose concentrations may be measured using a dynaValeo glucometer from dynamiCARE.
NOD mice usually develop diabetes defined as a blood glucose value (BGV)≥300 mg/dl between 13 and 30 weeks of age.
Groups of 14 to 17 mice are treated in a therapeutic setting, starting from the first measurement of diabetes (BGV≥300 mg/dL) for each mouse (day 1). Mice are randomized based on BGV and age at treatment initiation in five treatment groups: • Group 1: Isotype injected i.v., q.d., from day 1 to day 3+ control food from day 1 until end of the study (Isotype/vehicle) • Group 2: Isotype injected i.v., q.d., from day 1 to day 3+ food loaded with COMPOUND (0.6 mg/g of food) from day 1 until end of the study (Isotype/COMPOUND) • Group 3: Anti-CD3 antibody (30 μg), i.v., q.d., from day 1 to day 3+ control food from day 1 until end of the study (anti-CD3/vehicle) • Group 4: Anti-CD3 antibody (30 μg), i.v., q.d., from day 1 to day 3+ anti-CXCL10 antibody (100 μg), i.p., from day 4 to day 19 (administrations every 2nd/3rd day, 8 administations in total)+control food from day 1 until end of the study (anti-CD3/anti-CXCL10) • Group 5: Anti-CD3 antibody (30 μg), i.v., q.d., from day 1 to day 3+ food loaded with COMPOUND (0.6 mg/g of food) from day 1 until end of the study (anti-CD3/COMPOUND)
BGVs are assessed on a weekly basis and are compared between Isotype/control food-treated mice (group 1) and mice receiving the different treatments. For each mouse the experiment is terminated when the respective mouse reaches 40 weeks of age.
In this sub-analysis, only the mice not severely hyperglycemic at treatment initiation (defined as 300 mg/dL≤BGV≤400 mg/dL) were included in the study results.

[3] = test system: patients with severe corticosteroid-refractory ulcerative colitis; conditions: 15 μg/kg/day reduced to 10 μg/kg/day; cited from earlier work

COMPOUND plasma concentration [1]: dose-dependent increase
Molecule: Cc1ncn(CC(=O)N2CCN(c3sc(C(F)(F)F)nc3-c3cnc(C(F)(F)F)nc3)C[C@H]2CCO)n1 [COMPOUND, 1-{(R)-2-(2-Hydroxy-ethyl)-4-[2-trifluoromethyl-4-(2-trifluoromethyl-pyrimidin-5-yl)-thiazol-5-yl]-piperazin-1-yl}-2-(3-methyl-[1,2,4]triazol-1-yl)-ethanone]
CXCR3+CD8+ T cell migration into the BAL ([2]; dose 0.6 mg of COMPOUND/g of food): significantly and maximally reduces | BAL CXCR3+CD8+ T cells ([2]; preventive setting, food admix 0.006 to 2 mg COMPOUND per g food from 3 days prior LPS, BAL 72 hours post LPS challenge): dose-dependent decrease | % of reduction from Isotype/vehicle group (NOD mice; NOD mice, n = 14-17/group): 9% | % of reduction from Isotype/vehicle group (NOD mice; non-severe diabetic NOD mice, n = 7-11/group): 13% | efficacy on the BGV (NOD mice; NOD mice): minimal | BGV at week 40 of age (mg/dL) (Mean ± SEM) (NOD mice; NOD mice, treatment from BGV≥300 mg/dL, n = 14-17/group): 540.9 ± 35.4 mg/dL | BGV at week 40 of age (mg/dL) (Mean ± SEM) (NOD mice; non-severe diabetic NOD mice (300 mg/dL ≤ BGV ≤ 400 mg/dL at treatment initiation), n = 7-11/group): 517.3 ± 63.9 mg/dL | efficacy on the BGV (NOD mice; non-severe diabetic NOD mice sub-analysis): minimal | mice that showed disease progression (NOD mice; non-severe diabetic NOD mice, end of the study period): 86%

B1: visilizumab: humanized IgG2 anti-CD3 antibody with two point mutations in its Fc portion for FcR non-binding properties (antibody, chains of the INN, looked up, V domains shown)
VH: QVQLVQSGAEVKKPGASVKVSCKASGYTFISYTMHWVRQAPGQGLEWMGYINPRSGYTHYNQKLKDKATLTADKSASTAYMELSSLRSEDTAVYYCARSAYYDYDGFAYWGQGTLVTVSS
VL: DIQMTQSPSSLSASVGDRVTITCSASSSVSYMNWYQQKPGKAPKRLIYDTSKLASGVPSRFSGSGSGTDFTLTISSLQPEDFATYYCQQWSSNPPTFGGGTKVEIK
patients demonstrating a clinical response [3]: 84%
